Experiment [1] deals with CLN3 siRNA knock down PC12 cells. Put plainly: Protective effect in siRNA CLN3 knock down PC12 cells. The settings on record: FIG. 3A. The class given is cell-based. The source says:
(§1) FIGS. 3A and 3B show the neuroprotective effect of selected compounds in phenotypic cell lines. In FIG. 3A, the protective effect is shown in siRNA CLN3 knock down PC12 cells. In FIG. 3B the protective effect is shown in wild-type (WT) and CLN3 knock down mouse fibroblasts. Values are represented as mean±SD. *P<0.05, **p<0.01, ***p<0.001 compared to vehicle control, unpaired student t test.
(§2) Protective Effect in Phenotypic Cell Lines. […] The inventors screened a number of compounds in both neuron-like CLN3 siRNA knock down PC12 cells (FIG. 3A) and CLN3 knockdown mouse fibroblasts (FIG. 3B) as phenotypic models of JNCL. […] FIGS. 3A and 3B show the neuroprotective effect of selected compounds in phenotypic cell lines. In FIG. 3A, the protective effect is shown in siRNA CLN3 knock down PC12 cells. In FIG. 3B the protective effect is shown in wild-type (WT) and CLN3 knock down mouse fibroblasts. Values are represented as mean±SD. *P<0.05, **p<0.01, ***p<0.001 compared to vehicle control, unpaired student t test. […] Selected derivatives show greater protective effect than flupirtine in patient lympoblast cells in CLN1, CLN2, CLN3, CLN6 and CLN8 disease (FIGS. 4A to 4E). FIGS. 4A to 4E show the percentage of patient lymphoblast cells (%), using Trypan Blue dye with Flupirtine (20 μM, vehicle %1 EtOH), drug 3 (20 μM, vehicle %1 EtOH), drug 5 (50 μM, vehicle %4 DMSO) or drug 6 (20 μM, vehicle %4 DMSO) at 24 h. CLN1 (FIG. 4A), CLN2 (FIG. 4B), CLN3 (FIG. 4C), CLN6 (FIG. 4D), and CLN8 (FIG. 4E).

Experiment [2] concerns CLN3 knockdown mouse fibroblasts. The experiment can be described thus: Protective effect in CLN3 knock down mouse fibroblasts. The conditions noted are these: FIG. 3B. Type of experiment: cell-based.
From the text: as §1, §2

The test system of experiment [3] is PC12 cells. The experiment can be described thus: Etoposide-induced apoptosis in PC12 cells, cell viability. Type of experiment: cell-based. The conditions noted are these: for viability at 0.1 µM / viability at 0.3 µM / viability at 1 µM / viability at 3 µM / viability at 10 µM / viability at 30 µM: Rattus norvegicus; for viability at 0.1 µM: 0.1 μM compound, vehicle 52.1 ± 7.32; for viability at 0.3 µM: 0.3 μM compound; for protective activity in WT PC12 etoposide assay: WT PC12 cells.

A further experiment relates to primary neurons. The settings on record: cited from earlier work.
Experiment [4] concerns PC12 cells. Put plainly: Serum starvation-induced apoptosis in PC12 cells, cell viability. The class given is cell-based. The conditions noted are these: Rattus norvegicus.
Experiment [5] concerns PC12 cells. The experiment can be described thus: ROS in PC12 cells, CellROX green / DAPI staining after H2O2. The settings on record: 400 μM H2O2 for 4 hours, FIG. 5A. Type of experiment: cell-based. The procedure:
PC12 cells stained with CellROX and DAPI-blue nuclear stain. Greater intensity of green fluorescence indicates greater levels of ROS. Visualized through a microscope (40× magnification, bar=100 μM).
While flupirtine and retigabine are known antioxidants the inventors have shown (FIGS. 5A and 5B) that neuroprotective derivatives operate by a different mechanism of action. […] PC12 cells stained with CellROX and DAPI-blue nuclear stain. Greater intensity of green fluorescence indicates greater levels of ROS. Visualized through a microscope (40× magnification, bar=100 μM).

A further experiment deals with IMR-90-derived neurons. The class given is cell-based, human. The source says: The disclosed technology encompasses multiple derivatives of both flupirtine and retigabine. […] The inventors provide further insight into the derivatives from both original molecules. […] By way of explanation, and in no way a limitation of the present invention, the inventors have shown that the derivatives are active in two ways: they (1) upregulate expression of the anti-apoptotic protein Bcl-2 and ceramide pathway synthesis enzymes, and (2) activate autophagy.

Setting [6] is: PC-12, etoposide-induced apoptosis, PC12 cells.
[7] abbreviates: PC-12, 1 μM compound, etoposide-induced apoptosis, PC12 cells, read-out: % Viability 1 μM.
[8] abbreviates: PC-12, 3 μM compound, etoposide-induced apoptosis, PC12 cells, read-out: % Viability 3 μM.
The mark [9] stands for this setting: PC-12, 10 μM compound, etoposide-induced apoptosis, PC12 cells, read-out: % Viability 10 μM.
[10] abbreviates: PC-12, 30 μM compound, etoposide-induced apoptosis, PC12 cells, read-out: % Viability 30 μM.
Where [11] appears, read: PC-12, 1 μM compound, serum starvation-induced apoptosis, PC12 cells, vehicle 55.04 ± 8.99, read-out: % Viability 1 μM.
[12] abbreviates: PC-12, 3 μM compound, serum starvation-induced apoptosis, PC12 cells, read-out: % Viability 3 μM.
Setting [13] is: PC-12, 10 μM compound, serum starvation-induced apoptosis, PC12 cells, read-out: % Viability 10 μM.
The mark [14] stands for this setting: PC-12, 30 μM compound, serum starvation-induced apoptosis, PC12 cells, read-out: % Viability 30 μM.
[15] abbreviates: PC-12, read-out: % Viability 1 μM.
[16] abbreviates: PC-12, read-out: % Viability 3 μM.
[17] abbreviates: PC-12, read-out: % Viability 10 μM.
The mark [18] stands for this setting: PC-12, read-out: % Viability 30 μM.

Turning to `CCOC(=O)Nc1ccc(NCc2ccc(F)cc2)nc1N` [NK-1-4, Ethyl (2-amino-6-((4-fluorobenzyl)amino)pyridin-3-yl)carbamate, reference compound], the “protective activity” value in experiment [1] and in experiment [2] was “protective activity” in each case. Moreover, in the experiment on PC12 cells [3] (setting [6]), the viability at 0.1 µM was found to be 67 ± 5.88%. For the same molecule, the viability at 0.3 µM in the experiment on PC12 cells [3] (setting [6]) was 64.4 ± 9.35%. Besides, the viability at 1 µM in the experiment with PC12 cells [3] (setting [7]) was 73.2 ± 13.9%; with PC12 cells [4] (setting [11]), 85.4 ± 14%. The viability at 3 µM in the experiment with PC12 cells [3] (setting [8]) was 78.1 ± 12.9%; in the experiment with PC12 cells [4] (setting [12]) it was 82 ± 14.5%. In addition, the viability at 10 µM came out at 76.9 ± 17.4% in the experiment with PC12 cells [3] (setting [9]) and 81.5 ± 13% with PC12 cells [4] (setting [13]). In addition, the viability at 30 µM in the experiment on PC12 cells [3] (setting [10]) stood at 71.3 ± 18%; with PC12 cells [4] (setting [14]), 89.9 ± 17.1%. Also, in the experiment on primary neurons, the “concentration showing protective activity against Abeta 25-35 apoptotic cell death” value is 1 µg/mL. Moreover, the “amelioration of reactive oxygen species (ROS)” value (from here on “amelioration”) with PC12 cells [5] is recorded as “do ameliorate ROS”.

Regarding `CCOC(=O)Nc1ccc(NCc2ccc(Cl)cc2)nc1N` [NK-4-3, Ethyl (2-amino-6-((4-chlorobenzyl)amino)pyridin-3-yl)carbamate], the “activity in iPSC/IMR-90-derived neurons” value with IMR-90-derived neurons (15 ug/mL etoposide for 36 hours, FIG. 2) was “less active”. The results for the viability at 1 µM with PC12 cells [3] (setting [7]) and in the experiment on PC12 cells [4] (setting [11]) were 65.7 ± 16.2% and 78 ± 9.61%, respectively. The viability at 3 µM is 64.3 ± 4.28% with PC12 cells [3] (setting [8]) and 79.3 ± 5.5% in the experiment with PC12 cells [4] (setting [12]). Moreover, the viability at 10 µM in the experiment with PC12 cells [3] (setting [9]) was determined as 52.6 ± 10.3%; in the experiment with PC12 cells [4] (setting [13]) it was 86.5 ± 11.5%. The viability at 30 µM in the experiment on PC12 cells [3] (setting [10]) came out at 41.5 ± 6.14%; in the experiment with PC12 cells [4] (setting [14]), 86.6 ± 5.32%. Besides, the “protective activity in WT PC12 etoposide assay” value with PC12 cells [3] is “less active than compounds NK-10-1 and NK-12-1”.

With `Nc1nc(NCc2ccc(F)cc2)ccc1NC(=O)OCc1ccccc1` [NK-10-1, Benzyl 6-(4-fluorobenzylamino)-2-aminopyridin-3-ylcarbamate], the “protective activity” value in experiment [1] and in experiment [2] was “greater activity than flupirtine” throughout. The figures for the viability at 1 µM with PC12 cells [3] (setting [7]) and in the experiment on PC12 cells [4] (setting [11]) were 60.1 ± 7.91% and 93.4 ± 12.4%, respectively. Further, the viability at 3 µM with PC12 cells [3] (setting [8]) was determined as 82 ± 4.43%; with PC12 cells [4] (setting [12]) it was 90.4 ± 11.2%. The viability at 10 µM in the experiment with PC12 cells [3] (setting [9]) stood at 66.2 ± 6.26%; with PC12 cells [4] (setting [13]), 92.7 ± 12.8%. Besides, the viability at 30 µM stood at 57.4 ± 2.24% in the experiment on PC12 cells [3] (setting [10]) and 96.1 ± 15.3% in the experiment with PC12 cells [4] (setting [14]). The “protective activity in WT PC12 etoposide assay” value in the experiment on PC12 cells [3] is on record as “greater neuroprotective activity”. Besides, the “amelioration” value in the experiment on PC12 cells [5] is on record as “no amelioration of reactive oxygen species (ROS)”.

Take `C=CCOC(=O)Nc1ccc(NCc2ccc(F)cc2)nc1N` [NK-12-1, Allyl 6-(4-fluorobenzylamino)-2-aminopyridin-3-ylcarbamate]: the “protective activity” value in experiment [1] and in experiment [2] was “greater activity than flupirtine” in each case. The viability at 1 µM in the experiment on PC12 cells [3] (setting [7]) was determined as 65.5 ± 8.19%; in the experiment on PC12 cells [4] (setting [11]) it was 108 ± 10.3%. For the same molecule, the viability at 3 µM in the experiment with PC12 cells [3] (setting [8]) was 86.8 ± 9.05%; in the experiment on PC12 cells [4] (setting [12]), 88.6 ± 8.26%. Besides, the figures for the viability at 10 µM in the experiment on PC12 cells [3] (setting [9]) and with PC12 cells [4] (setting [13]) were 67.5 ± 22.6% and 82.2 ± 11.8%, respectively. In addition, the values for the viability at 30 µM in the experiment with PC12 cells [3] (setting [10]) and with PC12 cells [4] (setting [14]) were 45.2 ± 8.92% and 92.6 ± 12.3%, respectively. Moreover, the “protective activity in WT PC12 etoposide assay” value in the experiment with PC12 cells [3] is “greater neuroprotective activity”. Further, in the experiment with PC12 cells [5], the “amelioration” value was “no amelioration of reactive oxygen species (ROS)”.

Regarding `CCOC(=O)Nc1ccc(NCc2ccc(F)cc2)cc1N` [NK-22-13, Ethyl (2-amino-4-((4-fluorobenzyl)amino)phenyl)carbamate, reference compound], the viability at 1 µM was 58.3 ± 2.86% in the experiment with PC12 cells [3] (setting [15]) and 75.9 ± 15% with PC12 cells [4] (setting [15]). The viability at 3 µM in the experiment on PC12 cells [3] (setting [16]) was found to be 73.9 ± 13.9%; in the experiment with PC12 cells [4] (setting [16]), 77.9 ± 22.6%. Also, the viability at 10 µM stood at 66.3 ± 17.6% in the experiment on PC12 cells [3] (setting [17]) and 85.8 ± 17.9% in the experiment with PC12 cells [4] (setting [17]). The figures for the viability at 30 µM in the experiment with PC12 cells [3] (setting [18]) and with PC12 cells [4] (setting [18]) were 52.1 ± 7.62% and 76.2 ± 25%, respectively. Also, the “amelioration” value in the experiment with PC12 cells [5] is “do ameliorate ROS”.

For the molecule `CCOC(=O)Nc1ccc(NCc2ccc(C(F)(F)F)cc2)nc1N` [NK-40-3, Ethyl (2-amino-6-((4-(trifluoromethyl)benzyl)amino)pyridin-3-yl)carbamate], the “concentration with neuroprotective activity (as low as)” value in the experiment on IMR-90-derived neurons (human IMR-90-derived neurons) was found to be 0.1 µM. In the experiment on PC12 cells [3] (PC12 cells), the “concentration providing protection from etoposide-induced cell death” value turned out to be 0.1 µM. In the experiment with PC12 cells [3] (setting [6]), the viability at 0.1 µM is 85.8 ± 11.8% and the viability at 0.3 µM was 109 ± 17.3%. Also, in the experiment with PC12 cells [3] (setting [7]), the viability at 1 µM came out at 82.7 ± 8.82%. In addition, the viability at 3 µM with PC12 cells [3] (setting [8]) is 71.5 ± 4.99%. In addition, in the experiment on PC12 cells [3] (setting [9]), the viability at 10 µM was determined as 97.3 ± 22.8%. Also, in the experiment with PC12 cells [3] (setting [10]), the viability at 30 µM is 106 ± 15.8%.

Source of the values: patent US11369593B2 (Texas Tech University System, priority 2017, dated 2022).
